Data from patent US20250177371A1, “CFTR MODULATORS FOR THE TREATMENT OF VASCULAR DISEASE” (priority 2022, published 2025).
Entries after “also recorded” stand apart in the source; their conditions may differ.

Key:
[1] = test system: COVID-19 patients; conditions: treatment of COVID-19; cited from earlier work
[2] = test system: platelets isolated from blood of healthy donors; assay: Flow cytometry of surface expression of activation markers CD62p and CD63 on platelets; type: cell-based, human; conditions: platelets pre-treated 24 h with 10 µM ivacaftor or 5 µM forskolin prior to 50 µM ADP, 50 µM TRAP6 or 5 µM PAF
Protocol: Flow Cytometry: Blood samples were collected and stained as previously described3. In brief, blood was directly stained in dilution buffer (NaCl 137 mM, KCl 2.7 mM, MgCl2 1 mM, 4-(2-hydroxyethyl)-1-piperazineethanesulfonic acid (HEPES) 20 mM, glucose 5.6 mM, bovine serum albumin 1 g/l, pH 7.4.) containing mouse anti-human anti-CD42b (GPlb) Phycoerythrin (PE, clone HIP1), anti-CD62p (P-selectin) Phycoerythrin-Cyanine 7 (PE/Cy7, clone AK4), anti-CD63 (GP53) and Brilliant Violet 421 (clone H5C6), all from BioLegend (San Diego, CA, USA), before cells were fixed with 2 mL of 0.2% PFA in PBS. In order to analyze isolated platelets, total citrate blood was centrifuged at 150 g for 15 min to separate platelet rich plasma (PRP) from blood cells. PRP was collected and centrifuged again at 1000 g for 15 min. Platelets were subsequently resuspended in 10% CPDA buffer in PBS (Sigma-Aldrich (St. Louis, MO, USA)) and incubated for 24 h in the presence of either vehicle (DMSO, Sigma-Aldrich (St. Louis, MO, USA)), 10 µM ivacaftor (Cayman Chemicals, Ann Arbor, MI, USA)) or 5 µM forskolin (Fisher Scientific (Pittsburgh, PA, USA)) before staining was applied as described above. […] All measurements were analyzed with FlowJo (version 8, Tree Star, Inc., Ashland, OR, USA).

[3] = test system: platelets of healthy donors or severe COVID-19 patients; assay: Analysis of Ca2+ transients (Indo-1 AM, FACS); type: cell-based, human; conditions: 10 µM ivacaftor pretreatment; ADP, TRAP6 or PAF; healthy donors and severe COVID-19; except TRAP6 stimulated healthy platelets
Protocol: Analysis of Ca2+ transients: Platelet rich plasma (PRP) was stained with anti-CD42b, and loaded with Indo-1 AM (Invitrogen, Waltham, MA, USA)) for 30 min at 37° C. together in the presence of either vehicle (DMSO, 10 µM ivacaftor or 5 µM forskolin) under mild agitation. Stained PRP was diluted in Tyrode's Buffer (134 mM NaCl, 12 mM NaHCO3, 2.90 mM KCl, 0.34 mM Na2HPO4, 3 mM MgCl2, 2 mM CaCI2, 20 mM HEPES, 5 mM Glucose, pH 7.4.) complemented with heparin and […] before the fluorescence ratio of Ca2+-bound Indo-1 (405 nm) to Ca2+-unbound Indo-1 (530 nm) of CD42b+ platelets was monitored on a FACSymphony™ A5 (BD Biosciences, Franklin Lakes, NJ, USA) equipped with a ultraviolet (355 nm), violet (405 nm), blue (488 nm), yellow (561 nm), and red (637 nm) solid-state laser. After basal Ca2+ concentrations were monitored for 30 s, platelets were stimulated with either 5 μM PAF (Tocris Bioscience (Bristol, England, GB)), 50 μM ADP (Sigma-Aldrich, St. Louis, MO, USA) or 50 μM TRAP-6 (purchased from Cayman Chemicals (Ann Arbor, MI, USA)) before changes in intracellular Ca2+ concentration ([Ca2+] i) were monitored for additional 2 min. Results are expressed in arbitrary units as areaunder the curve (AUC).

[4] = test system: platelets from COVID-19 patients and healthy donors (hirudin whole blood); assay: Multiple Electrode Aggregometry (Multiplate analyzer); type: cell-based, human; conditions: 10 µM ivacaftor 15 min, ADP, TRAP6 or PAF, significance only for individual agonist-platelet combinations
Protocol: Multiple Electrode Aggregometry: Whole blood impedance measurement using Multiple Electrode Aggregometry (MEA) was performed on the Multiplate® analyzer by Roche (Basel, Switzerland)). Hirudin whole blood samples were treated with either vehicle (DMSO), 10 µM ivacaftor or 5 μM forskolin for 15 min at 37° C.

[5] = test system: platelets in whole blood of COVID-19 patients and healthy donors; assay: Vascular Injury Flow Assay (platelet adhesion on collagen IV); type: cell-based, human
Protocol: Vascular Injury Flow Assay: Citrated blood was stained with anti-CD42b ((GPlb) Allophycocyanin (APC, clone REA 185, Miltenyi Biotec, Bergisch Gladbach, Germany)) and treated with either vehicle (DMSO), 10 μM ivacaftor or 5 µM forskolin for 15 min at 37° C. before the microfluidic flow assay was performed as previously described2. In brief, pretreated whole blood was diluted 1:4 with modified Tyrode's Buffer (134 mM NaCl, 12 mM NaHCO3, 2.90 mM KCl, 0.34 mM Na2HPO4, 3 mM MgCl2, 2.1 mM CaCl2), 20 mM HEPES, 5 mM Glucose, 1 g/l BSA, adjusted to a pH of 7.4.) immediately before perfusion with a flow rate of 20 mL/h for 5 min through collagen IV coated microchannel flow chambers (6 Channel μ-Slide VI 0.4, Ibidi, Martinsried, Germany). After perfusion, cells were fixed with 4% PFA for 30 min and washed thoroughly with PBS. Five randomly selected regions of interest (ROI) for each experimental condition were imaged with an Invitrogen™ EVOS™ fluorescent microscope and quantification of the total CD42b+ covered area was carried out with ImageJ (Version […] by the US National Institutes of Health and the LOCI, University of Wisconsin).

SMILES	reduction in thromboembolic events [1]	agonist-induced upregulation of CD62p and CD63 (platelet activation) [2]	agonist-induced [Ca2+]i increase (AUC) [3]	agonist-induced aggregation of platelets (AUC) [4]	agonist-induced aggregation of platelets (AUC) ([4]; listed as Ivacaftor)	agonist-induced platelet adhesion (CD42b+ total area) ([5]; 10 μM ivacaftor 15 min, ADP, TRAP-6 or PAF, significance for most agonist-platelet combinations)	adhesion of both unstimulated and stimulated platelets ([5]; whole blood of severe COVID-19 patients)
COc1ccc(-n2nc(C(N)=O)c3c2C(=O)N(c2ccc(N4CCCCC4=O)cc2)CC3)cc1 [apixaban]	failed to yield a significant reduction						
CC(=O)Oc1ccccc1C(=O)O [aspirin]	failed to yield a significant reduction; also recorded: failed to show a significant reduction						
CC(C)(C)c1cc(C(C)(C)C)c(NC(=O)c2c[nH]c3ccccc3c2=O)cc1O [ivacaftor, N-(5-hydroxy-15 2,4-ditert-butyl-phenyl)-4-oxo-1 H-quinoline-3-carboxamide]		prevented; also recorded: attenuates; also recorded: normalized	attenuates; also recorded: significant reduction; also recorded: significantly attenuated	reduces; also recorded: general trend to reduce; also recorded: attenuates	significantly attenuates	reduces; also recorded: general trend to reduce; also recorded: attenuates	reduced
